Values joined by “and” are separate entries in the source; they are usually repeats but may differ in a detail not shown here. Identical values can stand only once. Like-named read-outs stand apart in the source and are kept apart here.
Legend:
ETA receptor = biological target: T1, ETA receptor (Homo sapiens, UniProt P25101); experiment: Functional potency for ETA receptor; format: biochemical; details: rating in words
T1 sequence (P25101 21-427): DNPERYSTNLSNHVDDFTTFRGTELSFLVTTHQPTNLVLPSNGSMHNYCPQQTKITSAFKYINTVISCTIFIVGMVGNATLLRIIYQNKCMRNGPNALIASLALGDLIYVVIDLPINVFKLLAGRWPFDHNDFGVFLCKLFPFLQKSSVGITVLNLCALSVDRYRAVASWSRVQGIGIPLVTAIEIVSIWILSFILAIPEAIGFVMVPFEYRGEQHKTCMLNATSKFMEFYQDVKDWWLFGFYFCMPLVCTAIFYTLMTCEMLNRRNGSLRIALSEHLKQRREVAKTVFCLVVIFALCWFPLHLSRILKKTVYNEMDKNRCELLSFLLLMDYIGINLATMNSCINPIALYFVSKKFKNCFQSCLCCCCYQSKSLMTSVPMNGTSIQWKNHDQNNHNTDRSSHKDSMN
From the text: (§1) In the above table, the physicochemical data, e.g., solubility, were obtained following standard protocols known in the field (see, e.g., Reis et al., Mini Rev Med Chem., 2010, 10(11):1071-6; Avdeef et al., Expert Opin Drug Metab Toxicol., 2005, 1(2):325-42; Bharate et al., Comb Chem High Throughput Screen., 2016, 19(6):461-9; and Jain et al., J Pharm Biomed Anal., 2013, 86:11-35); and the biochemical data, i.e., potency for ETA/ETB, were obtained following the protocols known in the field (see, e.g., Kirkby et al., Br J Pharmacol., 2008, 153(6):1105-19; and Maguire et al., Br J Pharmacol., 2014, 171(24):5555-72).

ETB receptor = biological target: T2, ETB receptor (Homo sapiens, UniProt P24530); experiment: Functional potency for ETB receptor; format: biochemical
T2 sequence (P24530 27-442): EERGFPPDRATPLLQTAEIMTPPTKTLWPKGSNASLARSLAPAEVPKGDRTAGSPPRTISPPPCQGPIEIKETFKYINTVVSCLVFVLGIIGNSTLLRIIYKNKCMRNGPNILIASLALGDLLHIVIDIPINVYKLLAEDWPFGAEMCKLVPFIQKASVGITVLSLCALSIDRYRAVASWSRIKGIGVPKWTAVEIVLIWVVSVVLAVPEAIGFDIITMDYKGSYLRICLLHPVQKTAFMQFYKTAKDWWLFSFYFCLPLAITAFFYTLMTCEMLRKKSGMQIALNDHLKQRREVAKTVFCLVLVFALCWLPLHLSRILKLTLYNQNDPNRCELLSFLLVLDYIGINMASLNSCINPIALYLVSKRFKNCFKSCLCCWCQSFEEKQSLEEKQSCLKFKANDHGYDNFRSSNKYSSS
From the text: as §1

ETA/ETB receptor = experiment: ETA/ETB selectivity (specificity); format: biochemical; details: ETA versus ETB, rating in words
From the text: as §1

Solubility = format: physicochemical
From the text: as §1

Stability in solid state = format: physicochemical; details: 2 h @ l25° C.
From the text: as §1

LogD = format: physicochemical; details: pH 7.4
From the text: as §1

Permeability (PAMPA) = format: in vitro ADME; details: rating in words
From the text: as §1

[1] = tested on: elevated intraocular pressure (IOP); experiment: Morrison's rat model of glaucoma (elevated IOP); format: in vivo, Brown Norway rats; details: topical eye drops 100 μg per dose, five days a week, four weeks
From the text: Adult male and female retired breeder Brown Norway rats (approximate age groups of 8 to 11 months) were obtained from Envigo (Indianapolis, Ind.). Baseline IOP measurements and pattern electroretinogram (PERG) amplitudes were collected prior to the surgery for elevation of IOP (to ensure that the IOP and PERG amplitudes were in the expected range of values). IOP was elevated in one eye (left eye) of the rats, while the corresponding right eyes served as contralateral controls. The Morrison method to elevate IOP in rats was carried out by injection of 50 μL of hypertonic saline through the episcleral veins to sclerose the trabecular meshwork. IOP was measured twice a week throughout the entire duration of the experiment. […] After detecting an elevation of IOP for two consecutive days, topical administration of eye drops (20 μL (100 μg) per dose of the tested compounds in the IOP elevated eye) was commenced and carried out for five days a week for a total of four weeks. In the 4th week of treatment, PERG analysis was carried out and rats were sacrificed by an overdose of pentobarbital (Fatal-Plus). Aqueous humor was collected from the rat eyes, frozen and shipped for analysis. Retinal flat mounts were prepared, immunostained with the RGC marker, Brn3a antibody and surviving RGCs were counted in two eccentricities (central and peripheral). For this study, the Morrison's model was used to induce ocular hypertension in adult male retired breeder Brown Norway rats as previously described by Morrison et al., (Morrison J C, Moore […], Gold […], Johnson E C. A rat model of chronic pressure-induced optic nerve damage. Exp Eye Res. 1997; 64(1):85-96). The immunostained retinal flat mounts were obtained to measure the retinal ganglion cell (RGC) counts. To obtain immunostained retinal flat mounts, the animals were euthanized after the treatments and then their eyes were enucleated. The eye cups were fixed overnight at 4° C. in 4% paraformaldehyde (PFA) and retinal flat mounts were prepared for collecting images. The retinal ganglion cell (RGC) counting was conducted using the images of immunostained retinal flat mounts. The images were uploaded to ImageJ, a photo editor designed for biology research (Rasband, 1997-2018) and the labeled retinal ganglion cells were counted manually in two eccentricities (central and peripheral). […] Pattern ERG (PERG) was used to assess the RGC function. […] Briefly, PERG signals were acquired from a DTL-plus electrode placed on the lower part of the corneal surface and the PERG waves were analyzed using the EMWIN software (LKC). The difference between the amplitude of the major positive (P1) and negative (N2) waves were calculated to […] amplitude.

[2] = Pharmacokinetics after topical or oral administration in the rat; format: in vivo, Brown Norway rats
Description: After the administrations, the animals (N=2) were euthanized at different time points (e.g. 4 and 8 hours) and tissues were collected for analysis. List of tissues collected include plasma, retina/retinal pigment epithelium (RPE)/choroid, vitreous humor and aqueous humor.

CCCCCS(=O)(=O)N(CCC)CCN1C[C@H](c2ccc3c(c2)OCO3)[C@@H](C(=O)O)[C@@H]1c1ccc(OC)c(F)c1 [A-182086, (2R,3R,4S)-4-(2H-1,3-benzodioxol-5-yl)-2-(3-fluoro-4-methoxyphenyl)-1-[2-(N-propylpentane-1-sulfonamido)ethyl]pyrrolidine-3-carboxylic acid]
Functional Potency for ETA and ETB Receptors (rating) (ETA receptor): High potency
IC50 (ETB receptor): 3.48 nM
Specificity (rating) (ETA/ETB receptor): Low specificity
solubility (Solubility; aqueous buffer, pH 7, amorphous form, read-out: Solubility at pH 7): 173 µg/mL and 298 µM
solubility (Solubility; ethyl acetate, organic solvent or mixture, read-out: Solubility in Ethyl Acetate): > 10600 µg/mL and > 18400 µM
Solubility in Ethyl Acetate (rating) (Solubility; ethyl acetate, rating in words): Good
solubility (Solubility; pH 2, simulated gastric fluid, read-out: Solubility at pH 2): 92.5 µg/mL and 160 µM
Stability in Solid State (rating) (Stability in solid state): unstable
Stability in Solid State, remaining (Stability in solid state): about 87% remaining/
logD (LogD): 2.3
Permeability (rating) (Permeability (PAMPA)): Mid-High
RGC function, pattern electroretinogram (PERG) changes [1]: maintained RGC function
Retinal ganglion cell (RGC) counts, peripheral retina [1]: prevented RGC loss
Detection in retina/RPE/choroid ([2]; oral, 50 mg/kg): detectable
Detection in retina/RPE/choroid, aqueous humor and vitreous humor ([2]; topical eye drop 100 μg, 4 and 8 hours post-administration): detected
